Results published in ChEMBL document CHEMBL1201862, “PubChem BioAssay data set” (2004).
Active and inactive are the calls of the source.

Columns and labels:
[1] = target: T1, fMet-Leu-Phe receptor (Homo sapiens, UniProt P21462); assay: formyl peptide receptor binders – dose response (AID 519); assay type: functional
T1 sequence (P21462 whole entry): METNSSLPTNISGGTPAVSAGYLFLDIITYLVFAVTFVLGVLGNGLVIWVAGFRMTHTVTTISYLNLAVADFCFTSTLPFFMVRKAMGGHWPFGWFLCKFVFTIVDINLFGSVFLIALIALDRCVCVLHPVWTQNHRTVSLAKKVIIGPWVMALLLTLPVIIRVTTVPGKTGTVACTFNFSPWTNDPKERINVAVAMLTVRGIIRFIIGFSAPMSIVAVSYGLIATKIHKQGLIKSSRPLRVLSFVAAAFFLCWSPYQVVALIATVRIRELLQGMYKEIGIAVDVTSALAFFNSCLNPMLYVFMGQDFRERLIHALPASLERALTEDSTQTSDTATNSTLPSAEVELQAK

[2] = target: T2, Mannose-6-phosphate isomerase (Homo sapiens, UniProt P34949); assay: MPI enzyme activity inhibition – biochemical, fluorescence intensity, coupled assay, primary screen (AID 1209)
T2 sequence (P34949 whole entry): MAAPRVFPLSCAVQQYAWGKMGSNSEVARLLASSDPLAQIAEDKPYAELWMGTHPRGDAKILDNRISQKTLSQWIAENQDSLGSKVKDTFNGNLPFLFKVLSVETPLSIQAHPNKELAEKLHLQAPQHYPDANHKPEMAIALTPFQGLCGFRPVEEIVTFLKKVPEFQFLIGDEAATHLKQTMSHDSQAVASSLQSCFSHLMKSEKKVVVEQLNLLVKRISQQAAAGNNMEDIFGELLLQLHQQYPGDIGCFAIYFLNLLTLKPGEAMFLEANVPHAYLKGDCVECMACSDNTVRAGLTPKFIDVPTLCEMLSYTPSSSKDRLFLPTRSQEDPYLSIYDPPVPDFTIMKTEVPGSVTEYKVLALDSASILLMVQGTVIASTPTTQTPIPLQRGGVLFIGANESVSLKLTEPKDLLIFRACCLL

[3] = target: T2, Mannose-6-phosphate isomerase; assay: MPI inhibition at elevated mannose 6-phosphate – biochemical, fluorescence intensity, high mannose 6-phosphate, primary screen (AID 1220)
[4] = test system: H9c2; assay: cells; assay type: functional, cell-based; settings: Rattus norvegicus, H9c2, Myocardium;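 further: confirmatory concentration-response retest of ultra-high-throughput screening hits for modulation of myocardial damage; cell death induced by hydrogen peroxide oxidative stress; compound pretreatment for 60 min then peroxide exposure for 2 h; potency is for protecting the cells against peroxide damage rather than for killing them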
[5] = target: T3, Caspase-6 (Homo sapiens, UniProt P55212); assay: inhibition of CASP6 peptide cleavage – biochemical, VEID-R110 fluorescence, cherry-pick, dose response (AID 720632)
T3 sequence (P55212 whole entry): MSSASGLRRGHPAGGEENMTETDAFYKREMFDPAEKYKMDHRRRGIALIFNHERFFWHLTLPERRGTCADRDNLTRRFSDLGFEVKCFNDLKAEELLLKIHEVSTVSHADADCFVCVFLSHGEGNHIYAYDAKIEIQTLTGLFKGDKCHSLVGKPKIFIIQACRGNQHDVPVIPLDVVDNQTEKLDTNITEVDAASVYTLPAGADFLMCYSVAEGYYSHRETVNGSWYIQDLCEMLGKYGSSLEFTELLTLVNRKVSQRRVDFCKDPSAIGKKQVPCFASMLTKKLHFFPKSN

[6] = target: Cytochrome P450 2C19 (Homo sapiens, UniProt P33261); assay: Cytochrome panel assay with activity outcomes. Panel member name: p450-cyp2c19 Compounds with AC50 equal or less than 10 uM are considered active; assay type: functional; settings: read-out: AC50
Cytochrome P450 2C19, sequence (P33261 whole entry): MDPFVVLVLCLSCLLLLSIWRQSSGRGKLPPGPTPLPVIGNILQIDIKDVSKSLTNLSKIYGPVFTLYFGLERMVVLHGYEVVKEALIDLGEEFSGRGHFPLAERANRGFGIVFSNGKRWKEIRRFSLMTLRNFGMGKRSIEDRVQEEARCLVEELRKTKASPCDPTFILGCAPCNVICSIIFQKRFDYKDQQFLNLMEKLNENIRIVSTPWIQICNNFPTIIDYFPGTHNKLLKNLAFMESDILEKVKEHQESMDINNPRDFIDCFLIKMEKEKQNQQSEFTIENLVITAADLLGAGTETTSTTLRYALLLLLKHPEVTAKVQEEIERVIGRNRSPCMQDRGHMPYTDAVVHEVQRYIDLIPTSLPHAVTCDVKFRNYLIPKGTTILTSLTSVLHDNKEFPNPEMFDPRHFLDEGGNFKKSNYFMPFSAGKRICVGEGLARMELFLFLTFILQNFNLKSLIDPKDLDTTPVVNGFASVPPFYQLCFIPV

[7] = target: Cytochrome P450 2C9 (Homo sapiens, UniProt P11712)
Cytochrome P450 2C9, sequence (P11712 whole entry, the tested form may be a part): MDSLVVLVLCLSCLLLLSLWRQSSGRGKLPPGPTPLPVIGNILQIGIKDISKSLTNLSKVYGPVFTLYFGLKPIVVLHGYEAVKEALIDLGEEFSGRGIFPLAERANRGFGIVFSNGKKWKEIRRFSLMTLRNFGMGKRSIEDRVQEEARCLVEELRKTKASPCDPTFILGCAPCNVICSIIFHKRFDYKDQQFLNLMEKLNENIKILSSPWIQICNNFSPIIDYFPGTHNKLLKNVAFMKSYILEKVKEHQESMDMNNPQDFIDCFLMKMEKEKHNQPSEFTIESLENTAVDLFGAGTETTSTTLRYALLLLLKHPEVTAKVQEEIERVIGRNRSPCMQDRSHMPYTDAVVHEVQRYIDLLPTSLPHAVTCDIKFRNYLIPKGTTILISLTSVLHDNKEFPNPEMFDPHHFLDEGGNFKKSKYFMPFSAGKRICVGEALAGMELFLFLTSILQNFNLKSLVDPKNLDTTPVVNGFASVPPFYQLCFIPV

[8] = target: T4, RNA-binding protein pos-1 (Caenorhabditis elegans, UniProt G5EF15); assay: disruptors of C. elegans POS-1 RNA interaction – biochemical, fluorescence polarization, dose response (AID 1964);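 further: purified POS-1 fused to maltose binding protein made in E. coli; potency of compounds blocking POS-1 binding to fluorescent RNA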
T4 sequence (G5EF15 whole entry): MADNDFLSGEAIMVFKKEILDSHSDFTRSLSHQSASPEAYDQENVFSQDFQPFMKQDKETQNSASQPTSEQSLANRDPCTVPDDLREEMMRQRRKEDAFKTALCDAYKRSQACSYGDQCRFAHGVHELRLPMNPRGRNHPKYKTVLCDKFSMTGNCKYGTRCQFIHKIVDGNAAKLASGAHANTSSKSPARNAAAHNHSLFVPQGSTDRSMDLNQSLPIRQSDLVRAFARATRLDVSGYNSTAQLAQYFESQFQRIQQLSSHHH

[9] = test system: Streptococcus sp. 'group A'; assay: Streptococcus pyogenes SK(-)GAS viability under kanamycin – luminescence, BacTiterGlo, confirmation, counter-screen for streptokinase expression inhibitor project, dose response (AID 1900); assay type: functional, organism-based; settings: Streptococcus sp. 'group A'
[10] = test system: Streptococcus; assay: GAS UMAA2166 growth inhibition – luminescence, BacTiterGlo, counter-screen for streptokinase expression inhibitor project, dose response (AID 1915); assay type: functional, organism-based; settings: Streptococcus;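 further: potency for reduction of bacterial viability or growth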
[11] = target: T5, Streptokinase A (Streptococcus pyogenes serotype M1, UniProt P10520); assay: viability-normalized secreted streptokinase activity reduction – plasminogen activation absorbance, OD405, dose response (AID 1914); assay type: functional, Streptococcus pyogenes M1 GAS;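 further: secreted streptokinase activity via plasminogen activation per viability signal from cell pellet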
T5 sequence (P10520 whole entry): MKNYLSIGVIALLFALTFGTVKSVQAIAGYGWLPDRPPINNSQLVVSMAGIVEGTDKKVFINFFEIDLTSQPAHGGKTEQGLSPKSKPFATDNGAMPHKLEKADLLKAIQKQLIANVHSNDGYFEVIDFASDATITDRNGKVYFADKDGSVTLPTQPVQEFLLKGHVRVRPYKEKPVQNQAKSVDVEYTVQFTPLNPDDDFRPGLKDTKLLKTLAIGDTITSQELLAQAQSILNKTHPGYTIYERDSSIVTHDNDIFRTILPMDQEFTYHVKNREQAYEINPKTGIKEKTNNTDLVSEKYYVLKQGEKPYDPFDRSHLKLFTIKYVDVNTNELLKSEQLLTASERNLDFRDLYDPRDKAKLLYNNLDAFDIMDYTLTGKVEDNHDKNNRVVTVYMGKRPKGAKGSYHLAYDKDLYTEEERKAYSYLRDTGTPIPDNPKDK

[12] = target: Nonstructural protein 1 (Influenza A virus, UniProt Q194T2); assay type: functional, Influenza A virus (A/California/07/2009(H1N1))
Nonstructural protein 1, sequence (Q194T2 whole entry): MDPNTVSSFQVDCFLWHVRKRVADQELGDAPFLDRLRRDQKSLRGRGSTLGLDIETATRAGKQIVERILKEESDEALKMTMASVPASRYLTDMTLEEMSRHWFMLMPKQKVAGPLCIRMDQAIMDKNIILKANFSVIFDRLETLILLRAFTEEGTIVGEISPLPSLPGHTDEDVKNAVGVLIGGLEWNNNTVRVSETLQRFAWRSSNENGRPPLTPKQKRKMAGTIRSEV

[13] = target: T6, Zinc finger protein mex-5 (Caenorhabditis elegans, UniProt Q9XUB2); assay: potency of MEX-5 RNA-binding blockers – biochemical, C. elegans, fluorescence polarization, dose response (AID 1960)
T6 sequence (Q9XUB2 whole entry): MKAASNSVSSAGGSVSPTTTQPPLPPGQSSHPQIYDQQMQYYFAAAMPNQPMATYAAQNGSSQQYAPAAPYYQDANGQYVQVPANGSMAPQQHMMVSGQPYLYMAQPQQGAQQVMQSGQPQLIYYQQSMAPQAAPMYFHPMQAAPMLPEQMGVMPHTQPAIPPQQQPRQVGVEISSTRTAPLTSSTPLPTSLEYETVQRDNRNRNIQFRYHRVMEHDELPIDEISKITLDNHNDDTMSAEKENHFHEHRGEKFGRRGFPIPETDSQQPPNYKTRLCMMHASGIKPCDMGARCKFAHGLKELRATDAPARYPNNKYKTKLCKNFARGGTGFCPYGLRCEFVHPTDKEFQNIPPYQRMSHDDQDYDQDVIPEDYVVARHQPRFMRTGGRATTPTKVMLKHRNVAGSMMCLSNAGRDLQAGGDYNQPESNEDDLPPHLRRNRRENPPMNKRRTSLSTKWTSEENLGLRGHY

[14] = Trypanosoma cruzi growth suppression in host cells – NIH3T3 host cells, beta-gal luminescence, confirmation (AID 2044); assay type: functional, cell-based;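 further: intracellular parasites grown in NIH/3T3 mouse fibroblasts as host cells; luminescent beta-galactosidase reporter signal from transgenic T. cruzi replicating inside host cells; inhibitors lower the luminescence signal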
[15] = target: Induced myeloid leukemia cell differentiation protein Mcl-1 (Homo sapiens, UniProt Q07820); assay type: functional
Induced myeloid leukemia cell differentiation protein Mcl-1, sequence (Q07820 whole entry): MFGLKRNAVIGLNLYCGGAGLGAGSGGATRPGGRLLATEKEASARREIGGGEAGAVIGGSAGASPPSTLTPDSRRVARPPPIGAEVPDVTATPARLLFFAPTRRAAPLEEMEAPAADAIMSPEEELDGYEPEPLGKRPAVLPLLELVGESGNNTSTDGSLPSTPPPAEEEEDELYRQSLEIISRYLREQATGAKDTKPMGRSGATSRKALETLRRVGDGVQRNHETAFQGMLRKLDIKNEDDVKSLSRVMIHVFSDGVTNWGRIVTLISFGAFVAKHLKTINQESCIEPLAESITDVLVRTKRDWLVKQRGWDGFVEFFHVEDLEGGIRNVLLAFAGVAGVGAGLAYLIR

[16] = NIH3T3 cell viability loss – ATP luminescence, mouse fibroblasts, counter-screen, dose response (AID 2010); assay type: functional, cell-based;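 further: cells exposed to compound for about 90 hours before reading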
[17] = test system: INS1; assay: INS-1E survival protection against cytokine death – cell-based, luminescence, retest, dose response (AID 449756); assay type: functional; settings: Rattus norvegicus;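 further: cell death triggered by IL-1 beta plus TNF-alpha plus IFN-gamma mixture; protective hits raise ATP signal compared with cytokine alone wells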
[18] = target: Albumin (Bos taurus, UniProt P02769); assay: Counterscreen for inhibitors of T-cell receptor (TCR)-CD3 interaction: Fluorescence-based biochemical high throughput dose response assay to identify inhibitors of T-cell receptor (TCR)-CD3 interaction using a TAMRA-labeled BSA probe.; assay type: functional
Albumin, sequence (P02769 whole entry): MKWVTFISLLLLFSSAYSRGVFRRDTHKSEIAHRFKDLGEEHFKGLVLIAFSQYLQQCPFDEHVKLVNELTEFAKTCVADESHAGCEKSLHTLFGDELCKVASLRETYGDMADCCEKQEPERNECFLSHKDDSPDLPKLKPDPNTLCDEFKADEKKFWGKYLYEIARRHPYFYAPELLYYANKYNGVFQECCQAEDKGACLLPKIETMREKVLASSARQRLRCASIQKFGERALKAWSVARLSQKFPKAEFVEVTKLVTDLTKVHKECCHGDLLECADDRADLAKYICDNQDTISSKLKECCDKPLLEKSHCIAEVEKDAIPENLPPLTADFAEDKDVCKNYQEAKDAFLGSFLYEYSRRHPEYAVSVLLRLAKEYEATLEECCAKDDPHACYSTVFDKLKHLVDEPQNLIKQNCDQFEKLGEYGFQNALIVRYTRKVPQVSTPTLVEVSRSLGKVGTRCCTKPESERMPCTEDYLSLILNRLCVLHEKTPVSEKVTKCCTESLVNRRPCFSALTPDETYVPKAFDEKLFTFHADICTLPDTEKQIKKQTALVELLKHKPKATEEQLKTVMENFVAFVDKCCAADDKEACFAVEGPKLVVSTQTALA

[19] = fluconazole-exposed Candida albicans growth modulators – fluorescence, retest, confirmation (AID 2467); assay type: functional, cell-based
[20] = NIH-3T3 fibroblast cytotoxicity, dose response, cytotoxicity control, cell-based, fluorescence, Alamar Blue, secondary assay (AID 2327); assay type: functional;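 further: NIH-3T3 mouse fibroblasts cultured with fluconazole at 8 µg/mL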
[21] = test system: HeLa; assay: viability loss in HeLa cells – cell-based, ATP luminescence, cherry-pick samples, cytotoxicity control, dose response (AID 687004); assay type: functional; settings: Homo sapiens

**Q.** Which Ki [1] does the source give for COc1ccc(C)cc1NC(=O)C1CCCCC1C(=O)O (centres undefined) here?
**A.** Its Ki is > 66.7 µM (inactive).

**Q.** With COc1cc(NC(C)=O)c2ncccc2c1[N+](=O)[O-] as the compound, how does the IC50 [2] read?
**A.** The IC50 was > 50 µM (not active).

**Q.** What about the IC50 [3] of the same compound?
**A.** The IC50 was > 50 µM (not active).

**Q.** Which IC50 [4] does the source give for CCOC(=O)C1=C(COC(=O)c2ccc([N+](=O)[O-])o2)NC(=O)NC1C (centres undefined) here?
**A.** Its IC50 is > 79 µM (inactive).

**Q.** What about the AC50 [5] of the same compound?
**A.** The AC50 was 30 µM (active).

**Q.** With CCOC(=O)Cc1cc(O)n2nc(C)c(-c3ccccc3)c2n1 as the compound, how does the AC50 [6] read?
**A.** Its AC50 is 22.4 µM (inconclusive).

**Q.** What about the AC50 [7] of the same compound?
**A.** The AC50 was 39.8 µM (inconclusive).

**Q.** And the Ki [1]?
**A.** The Ki was 36.8 µM (inactive).

**Q.** For CCN(CC)c1ccc(/C=N/C(C#N)=C(\N)C#N)cc1, which EC50 [8] is on record?
**A.** Its EC50 is 281 µM (active).

**Q.** What about the EC50 [9] of the same compound?
**A.** Its EC50 is > 150 µM (not active).

**Q.** And the EC50 [10]?
**A.** The EC50 was > 150 µM (not active).

**Q.** And the EC50 [11]?
**A.** Its EC50 is > 150 µM (not active).

**Q.** And the IC50 [12]?
**A.** The IC50 was > 100 µM (active).

**Q.** And the EC50 [13]?
**A.** Its EC50 is 114 µM (inconclusive).

**Q.** What about the Ki [1] of the same compound?
**A.** Its Ki is > 66.7 µM (inactive).

**Q.** With Cc1cc(/C=N/n2c(COc3ccccc3C)nc3ccccc3c2=O)c(O)c([N+](=O)[O-])c1 as the compound, how does the EC50 [14] read?
**A.** The EC50 was 1 µM (active).

**Q.** What about the IC50 [15] of the same compound?
**A.** Its IC50 is 4.58 µM (active).

**Q.** What about the EC50 [16] of the same compound?
**A.** Its EC50 is 6.51 µM (active).

**Q.** What about the AC50 [17] of the same compound?
**A.** The AC50 was 2.99 µM (active).

**Q.** And the IC50 [18]?
**A.** Its IC50 is > 94.1 µM (inactive).

**Q.** What about the EC50 [19] of the same compound?
**A.** Its EC50 is 1.37 µM (active).

**Q.** What about the EC50 [20] of the same compound?
**A.** Its EC50 is > 150 µM (inactive).

**Q.** With CCOC(=O)N1CCN(C(C(=O)NC2CCCC2)C(C)C)CC1 (centres undefined) as the compound, how does the AC50 [5] read?
**A.** The AC50 was 12.2 µM (active).

**Q.** For CN1C(=O)c2cc(NC(=O)NC3CCCC3)ccc2OC[C@H]2O[C@@H](CC(=O)NC3CCC3)CC[C@@H]21, which AC50 [21] is on record?
**A.** The AC50 was 25.9 µM (active).
